{"source": "patent US20240115572A1", "about": "“METHODS FOR TREATING GLIOBLASTOMAS WITH SEPIAPTERIN” (priority 2021, published 2024)", "key": {"[1]": {"test_system": "Orthotopic glioblastoma tumors, nude (U87) mouse model", "assay": "Survival of nude mice with orthotopic U87 glioblastoma tumors, sepiapterin plus radiation", "assay_type": "in vivo", "method": "Orthotopic glioblastoma tumors were established in nude (U87) and syngeneic (GL261) mouse models on Day 0 (N=13/group). Starting on Day 6 in the U87 mouse model, sepiapterin (SP) was orally administered for either 6 days (10 mg/kg sepiapterin) or daily (1 mg/kg sepiapterin) until end of experiment (60 days). Starting on Day 6 in the GL261 mouse model, SP was orally administered daily (10 mg/kg) until the end of experiment (60 days). Radiation (IR) (5 fxs of 2 Gy) with 3D treatment planning and delivery was started on Day 13, ending on Day 17."}, "Orthotopic GL261 tumors": {"test_system": "Orthotopic GL261 tumors", "assay": "Survival of mice with orthotopic GL261 tumors, temozolomide with or without sepiapterin", "assay_type": "in vivo, mouse", "conditions": "10 mg/kg SP orally from day 7 until end of study + 60 mg/kg TMZ for 5 days", "method": "Orthotopic GL261 tumors were established on Day 0. Starting on Day 7 mice were treated with 60 mg/kg temozolomide (TMZ) for 5 days+/−10 mg/kg SP given orally from day 7 until the end of the study. […] Future animal studies will combine with fractionated radiotherapy."}, "[2]": {"test_system": "adult female C57BL/6J mice", "assay": "Novel object recognition (NOR) test after brain irradiation", "assay_type": "in vivo, mouse", "excerpt": "The novel object recognition test is a behavioral test in which a mouse is allowed to explore two similar objects during the first (training) session, and then after a certain length of time, one of the two training objects is replaced by a new object during a later (test) session. Because mice have an innate preference for novelty, if the mouse recognizes the familiar object, it will spend most of its time at the novel object. The amount of time taken to explore the new object provides a measure of recognition memory. 24 adult female C57BL/6J mice were treated as follows: (1) 8 mice were irradiated (IR) with 10 Gy total dose, divided into three fractions with a “rest” day in between fractions, covering about a 1 mm square over the center of the head; (2) 8 mice were similarly irradiated, and also treated with 10 mg/kg/day sepiapterin (SP), administered as oral gavage, starting on day 1 of IR to 6 days beyond last radiation fraction (i.e. 11 days total); (3) 8 mice were untreated naïve. 1 month following treatment, mice were tested in the novel object recognition (NOR) task with an hour inter-trial interval (ITI) to assess hippocampal mediated memory (i.e. the test occurred one hour after training). In both training and test phases, time investigating objects was measured for 5 minutes. Two independent observers were used to evaluate. The Discrimination Index=(novel−familiar)/(novel+familiar)."}}}
{"smiles": "C[C@H](O)C(=O)C1=Nc2c(nc(N)[nH]c2=O)NC1", "note": "[sepiapterin, (S)-2-amino-6-(2-hydroxypropanoyl)-7,8-dihydropteridin-4(3H)-one]", "values": [{"measurement": "Survival vs control group", "setting": "[1]; 1 mg/kg oral continuously (daily from Day 6 to day 60) + IR, vs control", "result": "significantly different"}, {"measurement": "Survival vs all other groups (Control, IR alone, and 10 mg/kg for 6d)", "setting": "[1]; 1 mg/kg oral continuously + IR", "result": "significantly different from all other groups"}, {"measurement": "Survival vs control group", "setting": "[1]; 10 mg/kg oral for 6d from Day 6 + IR (5 fxs of 2 Gy, Day 13-17), vs control (no IR or SP)", "result": "significantly different"}, {"measurement": "Survival vs IR alone group", "setting": "[1]; 10 mg/kg oral for 6d from Day 6 + IR, vs IR alone", "result": "did not achieve statistical significance"}, {"measurement": "Survival vs TMZ alone", "setting": "Orthotopic GL261 tumors", "result": "improved survival"}, {"measurement": "Discrimination Index compared with irradiated-only group", "setting": "[2]; 10 Gy IR in three fractions + 10 mg/kg/day oral gavage for 11 days, NOR 1 month after treatment, 1 h ITI", "result": "increased"}, {"measurement": "NOR Discrimination Index, Mean", "setting": "[2]; IR 10 Gy + 10 mg/kg/day sepiapterin, N=8, 1 month after treatment, (novel−familiar)/(novel+familiar)", "result": 0.262}, {"measurement": "Diff of Means of Discrimination Index, IR + drug vs. IR", "setting": "[2]; Tukey test, P 0.331, P < 0.050: No", "result": 0.135}, {"measurement": "Diff of Means of Discrimination Index, Naïve vs. IR + drug", "setting": "[2]; Tukey test, P 0.475, P < 0.050: No", "result": 0.110}]}
